Experiment: gradient 5% acetonitrile 3 min, to 50% in 2 min, to 85% in 15 min, held 3 min, 100 µL/min
Conditions: column: Zorbax Extend-C18 2.1 x 50 mm; eluents: water / acetonitrile, 0.1% formic acid
In short: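 Each retention time is based on an adduct peak selected computationally and verified by manual inspection. Measurements used HPLC–quadrupole time-of-flight mass spectrometry in positive and negative ionization mode on mixtures of ~100 pure standards. Chromatography ran on a Zorbax Extend-C18 column (2.1 × 50 mm, 1.8 μm) at 100 μL/min with water and acetonitrile, each containing 0.1% formic acid, and dead and dwell volumes of 40 μL and 900 μL.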

SMILES | RP-LC retention time
CCOc1cc(=O)n2c(c1C(=O)Nc1cc(OC)c(OC)c(OC)c1)CCCC2 | 967 s
O=C(CCc1c(-c2ccc(Cl)cc2)nc2ccccn12)NCc1ccccc1F | 688 s
CN1C(=O)C2(c3ccccc31)C(C(=O)Nc1c(F)c(F)c(F)c(F)c1F)CC1CCCN12 (configuration not stated) | 653 s
O=C(C1CCN(c2cnc3nccnc3c2)CC1)N1CCC(Cc2ccccc2)CC1 | 889 s
COc1cc(-c2noc(Cc3nnc(-c4ccc(C)c(C)c4)o3)n2)cc(OC)c1OC | 1010 s
CC1CCCN(C(=O)c2cn(-c3ccc(-c4nc(C5CC5)no4)cn3)cn2)C1 (configuration not stated) | 840 s
CNC(=O)C1CCCN(C(=O)Nc2ccc(NC(=O)Nc3ccc(OC)cc3)cc2)C1 (configuration not stated) | 633 s
Cc1ccc(S(=O)(=O)N2CC[C@H](c3n[nH]c(C)n3)[C@H](N(C)C)C2)c(C)c1 | 623 s
O=C(c1cncnc1)N1CCCn2ccnc2C1C1CCCC1 (configuration not stated) | 572 s
CCN1C(=O)c2cccnc2Sc2cc(CNC(=O)C3CCN(C(C)=O)CC3)ccc21 | 638 s
Cc1c(N2CCC(C(=O)NCC3CCCO3)CC2)c(=O)n(CC(C)C)c(=O)n1-c1ccccc1 (configuration not stated) | 832 s
CCN1CCN(CC2CCN(S(=O)(=O)Cc3ccc(Cl)cc3)CC2)CC1 | 610 s
Cc1ccc(C(O)Cn2ccn3nc(-c4ccc(F)cc4)cc3c2=O)cc1C (configuration not stated) | 1020 s
CSc1ccc(CNC(=O)C2CCCN(c3ccc(=O)n(-c4cccc(F)c4)n3)C2)cc1 (configuration not stated) | 888 s
O=C(COc1ccc(Br)cc1)NCC(c1cccs1)N1CCCC1 (configuration not stated) | 672 s
COCCCNC(=O)N1CCC(C)(c2noc(C3CCOCC3)n2)CC1 | 654 s

SMILES | RP-LC retention time
O=C(c1cccs1)N1CCC(c2noc(-c3ccncc3)n2)C1 (configuration not stated) | 685 s
Cn1nc(-c2nc(Cc3ccccc3)no2)c2c1CCN(C(=O)NC(C)(C)C)C2 | 889 s
Oc1ccc2c3c1O[C@H]1c4[nH]c5ccccc5c4C[C@@]4(O)C(C2)N(CC2CC2)CCC314 (some centres not stated) | 692 s
Cn1cnc(S(=O)(=O)N2[C@H]3CC[C@@H]2c2cnc(-c4ccc(F)cc4)nc2C3)c1 | 764 s
Cc1ccccc1-c1noc(N2CCC(C(=O)N3CCN(C4CCCCC4)CC3)CC2)n1 | 705 s
O=C(c1cccs1)N1CC(C(=O)N2CCN(c3ncccn3)CC2)C1 | 604 s
Cn1c(=O)sc2cc(S(=O)(=O)N3CCC(C(=O)N4CCCCC4)CC3)ccc21 | 764 s
O=C(c1cccnc1)N1CCN(c2nnnn2-c2ccccc2)CC1 | 588 s
O=S(=O)(Nc1ccc(Cn2cncn2)cc1)c1ccc(F)cc1F | 714 s
CCOC(=O)C1CCCN(C(=O)CCC2CCCN(c3cc(NC4CC4)ncn3)C2)C1 (configuration not stated) | 666 s
Cc1cc(S(=O)(=O)Nc2ccc(Cn3cncn3)cc2)ccc1F | 743 s
O=C(C1CCN(c2cc(N3CCCCC3)ncn2)CC1)N1CCCCC1 | 652 s
CCN(CC)S(=O)(=O)c1ccc2c(c1)N(CC(=O)NCCCOC(C)C)C(=O)C1CCCCN21 (configuration not stated) | 907 s
Clc1ccccc1-c1nc(-c2ccc(-n3ccnc3)nc2)no1 | 749 s
Cc1cc(C)c(S(=O)(=O)N2CCC3(CC2)NCCN=C3NCc2ccccc2C)cc1C | 815 s

Results, then the compound that gave them:

RP-LC retention time | SMILES
668 s | Cc1ccccc1NC(=O)Nc1ccc2nncn2c1
835 s | Cc1nc2c(NC(=O)c3ccc(Cl)cc3)cccn2n1
873 s | COc1ccccc1OCC(=O)Nc1ccc2c(c1)C(=O)Nc1cc(Cl)ccc1O2
643 s | Cc1cccc(NC(=O)N2CCCC2C(=O)N(C)C)c1 (configuration not stated)
905 s | Cn1cc2nc(SCC(=O)Nc3ccc(Br)cc3)n(CC3CC3)c(=O)c2n1
766 s | O=C1COc2ccccc2N1Cc1nc(-c2ccc3c(c2)ncn3C2CCCC2)no1
879 s | Cc1cnn(Cc2nc(-c3ccc(NC(=O)c4cccs4)cc3)oc2C)c1
573 s | Cc1nc2cccnc2n1C1CCN(C(=O)Nc2ccc3c(c2)OCCO3)C1 (configuration not stated)
715 s | COc1ccc(NC(=O)Nc2cccc(-c3ccc(N4CCOCC4)nn3)c2)cc1Cl
769 s | Cc1ccn2cc(C(=O)N3CCN(c4cccc(C)c4C)CC3)nc2c1
737 s | CCOC(=O)c1ccc(Nc2cc(C(=O)N3CCCCC3)nc3cc(OC)c(OC)cc23)cc1
573 s | Cc1ccc(N2CC(NC(=O)Nc3ncccc3C)CC2=O)cc1 (configuration not stated)
889 s | Cc1ccccc1C(=O)NCCc1c[nH]c2ccc(Cl)cc12
744 s | O=C(Cc1cccc(C(F)(F)F)c1)Nc1cccn2cnnc12
725 s | Cc1cc(C(=O)Nc2cc(-c3ccco3)nn2CCO)no1
1030 s | Cc1ccccc1CNC(=O)C1(C)CCCN(C(=O)Nc2cccc(Cl)c2)C1 (configuration not stated)
1330 s | Cc1ccc(C)c(-c2csc(Nc3ccc(Br)cn3)n2)c1
577 s | COc1ccc(NC(=O)N2CCN(c3cnn4c(C)nnc4c3)CC2)cc1OC

RP-LC retention time | SMILES
791 s | CCCc1nnsc1C(=O)NCCCC(=O)Nc1cccc2cccnc12
842 s | CC(NC(=O)CCCn1c2ccccc2c2cnn(C)c(=O)c21)c1ccc2c(c1)OCCO2 (configuration not stated)
682 s | Cc1cc(NC(=O)c2ccc3c(c2)OCO3)sn1
983 s | Cc1sc(-c2noc(C3CC3)n2)cc1S(=O)(=O)N1CCC(C(=O)NCc2cccs2)CC1
584 s | O=C(NCC1CCN(c2cc(-c3ccncc3)[nH]n2)CC1)c1ccc2cc[nH]c2c1
1050 s | CCOc1ccc(N2CC(c3nc(-c4cccc(C)c4)no3)CC2=O)cc1 (configuration not stated)
580 s | Cc1ccccc1NC(=O)N1CCC(CCN)CC1
714 s | Cc1ccc(NC(=O)Cn2nc3c(N4CCCCCC4)nccn3c2=O)c(C)c1
946 s | COC(=O)c1cn(CC(=O)Nc2cc(OC)ccc2OC)c2ccccc12
882 s | CCN(c1ccccc1)S(=O)(=O)c1ccc(C(=O)Nc2cc(C)no2)cc1
723 s | CCOC(=O)Cc1ccc(NC(=O)Nc2cccn3c(C)nnc23)cc1
1030 s | CC(C)Cn1c(=O)c2cc(C(=O)NC(C)c3ccco3)nn2c2ccccc21 (configuration not stated)
1050 s | CC(C)(C)n1nc2c(c1-n1cccc1)CN(C(=O)C1COc3ccccc3O1)C2 (configuration not stated)
819 s | CC(=O)Nc1ccc(-c2nc(-c3ccc4c(c3)oc(=O)n4C)no2)cc1
667 s | COCCCNC(=O)c1ccc2c(c1)CCCN2S(C)(=O)=O
1140 s | Cc1ccc(C(=O)Nc2cnc(-c3cccc(Cl)c3)nc2)s1
728 s | Cc1ccc(NC(=O)N2CCCC2c2c(C)noc2C)cc1 (configuration not stated)
628 s | CCCCN1CCN(C(=O)CCc2cc3ccc(C)cc3[nH]c2=O)CC1
